This note sets out measurements from patent US20250115597A1, “TYK2 INHIBITORS AND COMPOSITIONS AND METHODS THEREOF” (LYNK PHARMACEUTICALS CO. LTD., priority 2021, published 2025).

Read-outs that look alike come from different tables or passages of the source.

Series [1] is described as follows: Microsomal metabolic stability assay. Format: in vitro ADME. Particulars: pH 7.4, 0.5 mg/mL protein, 1 μM compound. On the procedure:
Microsomal Metabolic Stability Assay
Microsomes were pre-incubated with test compound or control compounds for 5 min at 37° C. in 100 mM potassium phosphate buffer, pH 7.4, 1.0 mM EDTA. The reaction was initiated by addition of 15 μL of the NADPH regenerating system to 30 μL of each incubation mixture per time point. The final incubation condition was composed of 0.5 mg/mL microsomal protein, 1 μM test article/positive control, 2 mM NADPH. The 0-minute samples were prepared by addition of a 30 μL aliquot of each incubation mixture to 135 μL quench reagent to precipitate proteins. And then a 15 μL aliquot of the NADPH regenerating system was added. At 5, 15, 30 and 45 minutes, the reaction will be stopped by the addition of cold acetonitrile solution containing internal standard. The samples taken at all time points were centrifuged at 5000×g for 15 minutes. 50 μL of supernatant are taken into 96-well assay plates pre-added with 50 μL ultrapure water, and then analyzed by LC/MS/MS.
Concentrations of test articles, control compounds in the samples were determined by using LC/MS/MS method. Plotting of the chromatograms and peak area integrations are carried out by Analyst (AB Sciex).
n the determination of the in vitro elimination constant (ke) of the control compounds, the analyte/internal standard peak area ratios will be converted to percentage remaining (% Remaining) with the following equation: […]
The slope was measured by the natural logarithm of the percentage of the residual compound and time, T1/2 was calculated according to the following formula.

For series [2], the target named is T1, Ba/F3-FL-TYK2-P760L cells (Homo sapiens, UniProt P29597, P760L, cells depend on it).
T1 construct: BaF3-FL-T2P760L (nM)
T1 sequence (P29597 whole entry P760L): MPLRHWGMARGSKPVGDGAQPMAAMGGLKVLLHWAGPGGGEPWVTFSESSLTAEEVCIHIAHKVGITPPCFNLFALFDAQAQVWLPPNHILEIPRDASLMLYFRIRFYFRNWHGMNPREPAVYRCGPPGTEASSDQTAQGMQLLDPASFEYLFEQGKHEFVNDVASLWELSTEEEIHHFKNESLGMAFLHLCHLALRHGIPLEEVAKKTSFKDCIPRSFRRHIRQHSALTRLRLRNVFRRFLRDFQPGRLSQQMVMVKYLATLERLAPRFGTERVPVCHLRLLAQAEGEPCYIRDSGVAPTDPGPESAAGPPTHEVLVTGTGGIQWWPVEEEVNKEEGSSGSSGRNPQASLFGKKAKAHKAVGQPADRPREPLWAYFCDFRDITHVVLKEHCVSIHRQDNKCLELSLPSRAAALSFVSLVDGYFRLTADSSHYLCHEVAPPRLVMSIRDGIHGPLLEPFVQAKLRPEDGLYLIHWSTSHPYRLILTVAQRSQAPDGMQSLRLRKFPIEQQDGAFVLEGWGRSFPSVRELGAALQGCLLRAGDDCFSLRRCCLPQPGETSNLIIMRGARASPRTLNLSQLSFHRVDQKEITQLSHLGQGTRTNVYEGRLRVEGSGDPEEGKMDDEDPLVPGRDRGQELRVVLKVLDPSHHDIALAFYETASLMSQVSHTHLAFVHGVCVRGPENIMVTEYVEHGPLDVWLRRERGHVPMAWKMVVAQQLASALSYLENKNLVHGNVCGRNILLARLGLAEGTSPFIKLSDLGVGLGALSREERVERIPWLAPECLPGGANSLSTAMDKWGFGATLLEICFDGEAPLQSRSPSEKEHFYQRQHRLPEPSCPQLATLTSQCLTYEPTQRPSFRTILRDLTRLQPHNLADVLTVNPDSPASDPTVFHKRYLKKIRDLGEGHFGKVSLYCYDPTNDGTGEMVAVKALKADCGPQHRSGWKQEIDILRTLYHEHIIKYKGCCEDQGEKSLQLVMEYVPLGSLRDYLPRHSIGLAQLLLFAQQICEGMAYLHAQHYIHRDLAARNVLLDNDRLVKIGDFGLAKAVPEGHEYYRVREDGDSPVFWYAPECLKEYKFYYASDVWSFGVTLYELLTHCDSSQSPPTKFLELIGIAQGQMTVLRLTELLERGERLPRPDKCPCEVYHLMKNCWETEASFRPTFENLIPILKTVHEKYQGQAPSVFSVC
The series can be described thus: Anti-proliferative assay, Ba/F3-FL-TYK2-P760L cells (Cell-Titer Glo). It is filed as cell-based. Particulars: 72 h, read-out: BaF3-FL-T2P760L IC50. The procedure, abridged: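 Ba/F3 cells made IL-3-independent by TEL-fused or full-length mutant JAK-family kinases, seeded at 2000/well and dosed after 24 h with 9 three-fold dilutions topping at 20 μM. Viability after 72 h at 37 °C, 5% CO2 by Cell-Titer Glo ATP luminescence.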

The mark [3] stands for this setting: dog liver microsomes, read-out: Dog LM Clint.
Where [4] appears, read: dog liver microsomes, read-out: Dog LM T½.
Where [5] appears, read: human liver microsomes, read-out: Human LM Clint.
Setting [6] is: human liver microsomes, read-out: Human LM T½.
The mark [7] stands for this setting: rat liver microsomes, read-out: Rat LM Clint.
Setting [8] is: rat liver microsomes, read-out: Rat LM T½.

For the compound `[2H]C([2H])([2H])NC(=O)c1cnc(Nc2ccc(F)cn2)cc1Nc1ccc2cnn(C([2H])([2H])[2H])c2c1OC` [Example 141, 6-((5-Fluoropyridin-2-yl)amino)-4-((7-methoxy-1-(methyl-d3)-1H-indazol-6-yl)amino)-N-(methyl-d3)nicotinamide], the values for the microsomal CLint at 1 μM in series [1] (setting [3]), in series [1] (setting [5]) and in series [1] (setting [7]) were 93.8 µL/min/mg, 76 µL/min/mg and 46.8 µL/min/mg, respectively. Moreover, the half-life at 1 μM in series [1] (setting [4]) came to 14.8 min; in series [1] (setting [6]), 18.2 min; in series [1] (setting [8]), 29.6 min. Further, the GI50 in series [2] is 29.1 nM.

`[2H]C([2H])([2H])NC(=O)c1cnc(NC(=O)C2CC2)cc1Nc1cn(C)c2cnn(C(C)C(F)(F)F)c(=O)c12` (centres unmarked) [Example 200, 6-(Cyclopropanecarboxamido)-N-(methyl-d3)-4-((1-methyl-4-oxo-5-(1,1,1-trifluoropropan-2-yl)-4,5-dihydro-1H-pyrrolo[2,3-d]pyridazin-3-yl)amino)nicotinamide]: the microsomal CLint at 1 μM in series [1] (setting [5]) is under 11.5 µL/min/mg. For the same compound, in series [1] (setting [6]), the half-life at 1 μM was over 120 min. The GI50 in series [2] was 648 nM.

With `CNC(=O)c1cnc(Nc2ccc(F)cn2)cc1Nc1cn(C)c2ccn(C)c(=O)c12` [Example 11, 4-((1,5-Dimethyl-4-oxo-4,5-dihydro-1H-pyrrolo[3,2-c]pyridin-3-yl)amino)-6-((5-fluoropyridin-2-yl)amino)-N-methylnicotinamide], the figures for the microsomal CLint at 1 μM in series [1] (setting [5]) and in series [1] (setting [7]) were 74 µL/min/mg and 30.6 µL/min/mg, respectively. In addition, the figures for the half-life at 1 μM in series [1] (setting [6]) and in series [1] (setting [8]) were 18.7 min and 45.3 min, respectively. For the same compound, the GI50 in series [2] came to 124 nM.

Take `[2H]C([2H])([2H])NC(=O)c1cnc(NC(=O)C2CC2)cc1Nc1cnn2ccn(CC(F)(F)F)c(=O)c12` [Example 45, 6-(Cyclopropanecarboxamido)-N-(methyl-d3)-4-((4-oxo-5-(2,2,2-trifluoroethyl)-4,5-dihydropyrazolo[1,5-a]pyrazin-3-yl)amino)nicotinamide]: the results for the microsomal CLint at 1 μM in series [1] (setting [3]), in series [1] (setting [5]) and in series [1] (setting [7]) were 8.76 µL/min/mg, 51.9 µL/min/mg and 110 µL/min/mg, respectively. The half-life at 1 μM in series [1] (setting [4]) stood at 158 min; in series [1] (setting [6]), 26.7 min; in series [1] (setting [8]) it was 12.6 min. Further, the GI50 in series [2] was 160 nM.

Regarding `[2H]C([2H])([2H])NC(=O)c1cnc(NC(=O)C2CC2)cc1Nc1cc(F)c2cnn(CC)c2c1OC` [Example 147, 6-(Cyclopropanecarboxamido)-4-((1-ethyl-4-fluoro-7-methoxy-1H-indazol-6-yl)amino)-N-(methyl-d3)nicotinamide], the microsomal CLint at 1 μM in series [1] (setting [3]) was 54.4 µL/min/mg; in series [1] (setting [5]), 59 µL/min/mg; in series [1] (setting [7]) it was 124 µL/min/mg. Also, the half-life at 1 μM in series [1] (setting [4]) came out at 25.5 min; in series [1] (setting [6]), 23.5 min; in series [1] (setting [8]) it was 11.1 min. Besides, in series [2], the GI50 amounted to 175 nM.

For `CNC(=O)c1cnc(NC(=O)C2CC2)cc1Nc1cn(C)c2ccn(C)c(=O)c12` [Example 12, 6-(Cyclopropanecarboxamido)-4-((1,5-dimethyl-4-oxo-4,5-dihydro-1H-pyrrolo[3,2-c]pyridin-3-yl)amino)-N-methylnicotinamide], the microsomal CLint at 1 μM in series [1] (setting [5]) came to 25.8 µL/min/mg; in series [1] (setting [7]), 16.4 µL/min/mg. In addition, the figures for the half-life at 1 μM in series [1] (setting [6]) and in series [1] (setting [8]) were 53.7 min and 84.5 min, respectively. Further, in series [2], the GI50 stood at 416 nM.

Take `[2H]C([2H])([2H])NC(=O)c1cnc(Nc2cccc(F)n2)cc1Nc1cn(C)c2c(Cl)cn(CC)c(=O)c12` [Example 161, 4-((7-Chloro-5-ethyl-1-methyl-4-oxo-4,5-dihydro-1H-pyrrolo[3,2-c]pyridin-3-yl)amino)-6-((6-fluoropyridin-2-yl)amino)-N-(methyl-d3)nicotinamide]: the values for the microsomal CLint at 1 μM in series [1] (setting [3]), in series [1] (setting [5]) and in series [1] (setting [7]) were 27.2 µL/min/mg, 74.6 µL/min/mg and 63.5 µL/min/mg, respectively. Also, the half-life at 1 μM in series [1] (setting [4]) came out at 51 min; in series [1] (setting [6]) it was 18.6 min; in series [1] (setting [8]) it was 21.8 min. Besides, the GI50 in series [2] stood at 21.6 nM.

Regarding `[2H]C([2H])([2H])NC(=O)c1cnc(NC(=O)C2CC2)cc1Nc1csc2cnn(C(C)C(F)(F)F)c(=O)c12` (centres unmarked) [Example 185, 6-(Cyclopropanecarboxamido)-N-(methyl-d3)-4-((4-oxo-5-(1,1,1-trifluoropropan-2-yl)-4,5-dihydrothieno[2,3-d]pyridazin-3-yl)amino)nicotinamide], the microsomal CLint at 1 μM in series [1] (setting [3]), in series [1] (setting [5]) and in series [1] (setting [7]) was under 11.5 µL/min/mg throughout. Also, the half-life at 1 μM in series [1] (setting [4]), in series [1] (setting [6]) and in series [1] (setting [8]) was over 120 min throughout. Further, the GI50 in series [2] is 428 nM.

For the compound `[2H]C([2H])([2H])NC(=O)c1cnc(NC(=O)C2CC2)cc1Nc1cn(C)c2c(F)cn(CC(F)(F)F)c(=O)c12` [Example 123, 6-(Cyclopropanecarboxamido)-4-((7-fluoro-1-methyl-4-oxo-5-(2,2,2-trifluoroethyl)-4,5-dihydro-1H-pyrrolo[3,2-c]pyridin-3-yl)amino)-N-(methyl-d3)nicotinamide], the figures for the microsomal CLint at 1 μM in series [1] (setting [3]), in series [1] (setting [5]) and in series [1] (setting [7]) were 18.7 µL/min/mg, 53 µL/min/mg and 55.6 µL/min/mg, respectively. Also, the half-life at 1 μM in series [1] (setting [4]) is 84.8 min; in series [1] (setting [6]), 26.2 min; in series [1] (setting [8]) it was 25 min. Also, in series [2], the GI50 was found to be 100 nM.

Turning to `[2H]C([2H])([2H])NC(=O)c1nnc2cc1Nc1cc(cc(-n3cnc(C)n3)c1OC)COCc1nc(ccc1F)N2` [Example 75, 18-Fluoro-10-methoxy-N-(methyl-d3)-11-(3-methyl-1H-1,2,4-triazol-1-yl)-15-oxa-2,4,5,8,21-pentaazatetracyclo[15.3.1.1^{3,7}.1^{9,13}]tricosa-1(20),3,5,7(23),9(22),10,12,17(21),18-nonaene-6-carboxamide], the microsomal CLint at 1 μM was 37.7 µL/min/mg in series [1] (setting [3]), 21.8 µL/min/mg in series [1] (setting [5]) and 22.6 µL/min/mg in series [1] (setting [7]). In addition, the half-life at 1 μM in series [1] (setting [4]) worked out at 36.8 min; in series [1] (setting [6]), 63.6 min; in series [1] (setting [8]) it was 61.2 min. The GI50 in series [2] is 108 nM.

In the case of `[2H]C([2H])([2H])NC(=O)c1cnc(NC(=O)C2CC2)cc1Nc1cn(C)c2ccn(-c3ccn(C)n3)c(=O)c12` [Example 118, 6-(Cyclopropanecarbonylamino)-4-[[1-methyl-5-(1-methylpyrazol-3-yl)-4-oxo-pyrrolo[3,2-c]pyridin-3-yl]amino]-N-(methyl-d3)pyridine-3-carboxamide], in series [2], the GI50 was 1060 nM.

For `[2H]C([2H])([2H])NC(=O)c1cnc(NC(=O)C2CC2)cc1Nc1csc2c(F)cn(C)c(=O)c12` [Example 177, 6-(Cyclopropanecarboxamido)-4-((7-fluoro-5-methyl-4-oxo-4,5-dihydrothieno[3,2-c]pyridin-3-yl)amino)-N-(methyl-d3)nicotinamide], in series [2], the GI50 turned out to be 91 nM.

As for `[2H]C([2H])([2H])NC(=O)c1cnc(Nc2ccc(C)nn2)nc1Nc1cccc(-c2ncn(C)n2)c1OC` [Example 61, 4-((2-Methoxy-3-(1-methyl-1H-1,2,4-triazol-3-yl)phenyl)amino)-N-(methyl-d3)-2-((6-methylpyridazin-3-yl)amino)pyrimidine-5-carboxamide], the GI50 in series [2] worked out at 3510 nM.

For the compound `CNC(=O)c1cnc(NC(=O)C2CC2(F)F)nc1Nc1cccc(-c2ncn(C)n2)c1OC` (centres unmarked) [Example 64, 2-(2,2-Difluorocyclopropane-1-carboxamido)-4-((2-methoxy-3-(1-methyl-1H-1,2,4-triazol-3-yl)phenyl)amino)-N-methylpyrimidine-5-carboxamide], in series [2], the GI50 was determined as 2040 nM.

As to `[2H]C([2H])([2H])NC(=O)c1cnc(NC(=O)C2CC2)cc1Nc1csc2cnn(CCOC)c(=O)c12` [Example 179, 6-(Cyclopropanecarboxamido)-4-((5-(2-methoxyethyl)-4-oxo-4,5-dihydrothieno[2,3-d]pyridazin-3-yl)amino)-N-(methyl-d3)nicotinamide], the GI50 in series [2] is over 5000 nM.

`CNC(=O)c1cnc(NC(=O)C2CC2)cc1Nc1ccc2nc3n(c2c1OC)CCC3` [Example 248, 6-(Cyclopropanecarboxamido)-4-((8-methoxy-2,3-dihydro-1H-benzo[d]pyrrolo[1,2-a]imidazol-7-yl)amino)-N-methylnicotinamide]: the GI50 in series [2] is 1420 nM.
